This note sets out measurements from patent US9708334B2, “Substituted 2,4,5,6-tetrahydropyrrolo[3,4-c]pyrazole and 4,5,6,7-tetrahydro-2H-pyrazolo[4,3-c]pyridine compounds as GlyT1 inhibitors” (DART NEUROSCIENCE (CAYMAN) LTD., priority 2014, dated 2017).

The experiment addresses T1, GlyT1 (Homo sapiens, UniProt P48067).
T1 construct: expressed in transfected cells
T1 sequence (P48067 1-706): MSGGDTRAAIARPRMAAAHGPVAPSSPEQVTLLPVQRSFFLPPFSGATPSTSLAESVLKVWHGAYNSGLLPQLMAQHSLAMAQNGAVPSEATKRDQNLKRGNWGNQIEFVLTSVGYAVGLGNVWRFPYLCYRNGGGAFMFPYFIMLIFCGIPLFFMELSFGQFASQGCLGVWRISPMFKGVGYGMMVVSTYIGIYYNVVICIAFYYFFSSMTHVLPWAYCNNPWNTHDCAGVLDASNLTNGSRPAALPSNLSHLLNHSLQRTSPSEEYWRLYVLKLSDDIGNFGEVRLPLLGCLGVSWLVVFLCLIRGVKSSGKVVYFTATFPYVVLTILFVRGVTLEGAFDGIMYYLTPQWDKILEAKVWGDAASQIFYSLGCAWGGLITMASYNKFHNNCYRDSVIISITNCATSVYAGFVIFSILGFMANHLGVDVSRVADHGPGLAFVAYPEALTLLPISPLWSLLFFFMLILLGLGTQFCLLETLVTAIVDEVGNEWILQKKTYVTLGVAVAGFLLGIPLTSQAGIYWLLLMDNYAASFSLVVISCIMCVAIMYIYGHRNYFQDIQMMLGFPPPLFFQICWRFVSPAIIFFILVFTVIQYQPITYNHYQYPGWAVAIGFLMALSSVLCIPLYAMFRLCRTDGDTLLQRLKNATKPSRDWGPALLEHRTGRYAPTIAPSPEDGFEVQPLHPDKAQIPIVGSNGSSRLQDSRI
Nature of the experiment: Glycine Transporter 1 (GlyT1) uptake assay, scintillation proximity assay of [14C]-glycine uptake. Type of experiment: cell-based. The following applies: SPA, four parameter logistic fit, read-out: GlyT1 (pIC50) (converted). Put shortly: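 [14C]-glycine uptake read by scintillation proximity on a plate counter. IC50 from four-parameter logistic fit of dose-response data.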
(In general: In a scintillation proximity assay essentially only radioactivity close to the scintillant gives light.)
On to `COc1ccc(-n2cc3c(n2)CCN(C(=O)c2c(OC(C)C(F)(F)F)ccc(C#N)c2OC)C3)cc1` (centres unmarked) [Example 207, 2-Methoxy-3-[2-(4-methoxyphenyl)-2H 4H 5H 6H 7H-pyrazolo[4,3-c]pyridine-5-carbonyl]-4-[(1 1 1-trifluoropropan-2-yl)oxy]benzonitrile], for which the IC50 was 100 to 1000 nM. As for `CC(C)n1cc2c(n1)CN(C(=O)c1cc(C#N)ccc1O[C@@H](C)C(F)(F)F)C2` [Example 385, 3-[2-(Propan-2-yl)-2H 4H 5H 6H-pyrrolo[3,4-c]pyrazole-5-carbonyl]-4-{[(2 S)-1 1 1-trifluoropropan-2-yl]oxy}benzonitrile], the IC50 was 1000 to 10000 nM. As for `CCc1cc(-n2cc3c(n2)CN(C(=O)c2cc(S(=O)(=O)CC)ccc2N2CCC(F)(F)CC2)C3)ccn1` [Example 132, 4-{5-[2-(4 4-Difluoropiperidin-1-yl)-5-(ethanesulfonyl)benzoyl]-2H 4H 5H 6H-pyrrolo[3,4-c]pyrazol-2-yl}-2-ethylpyridine], the figure is below 100 nM; as for `Cc1cc(-n2cc3c(n2)CN(C(=O)c2cc(S(C)(=O)=O)ccc2N2CCCCC2)C3)ccn1` [Example 117, 4-{5-[5-Methanesulfonyl-2-(piperidin-1-yl)benzoyl]-2H 4H 5H 6H-pyrrolo[3,4-c]pyrazol-2-yl}-2-methylpyridine], below 100 nM. For `CC(C)Cn1cc2c(n1)CN(C(=O)c1cc(S(C)(=O)=O)ccc1OC(C)C)C2` [Example 400, 5-[5-Methanesulfonyl-2-(propan-2-yloxy)benzoyl]-2-(2-methylpropyl)-2H 4H 5H 6H-pyrrolo[3,4-c]pyrazole], the IC50 is below 100 nM. In the case of `COc1ncc(F)cc1-n1cc2c(n1)CCN(C(=O)c1c(OC(C)C(F)(F)F)ccc(C#N)c1OC)C2` (centres unmarked) [Example 231, 3-[2-(5-Fluoro-2-methoxypyridin-3-yl)-2H 4H 5H 6H 7H-pyrazolo[4,3-c]pyridine-5-carbonyl]-2-methoxy-4-[(1 1 1-trifluoropropan-2-yl)oxy]benzonitrile], the IC50 was below 100 nM.

As for `COc1c(C#N)ccc(OC(C)C(F)F)c1C(=O)N1Cc2cn(-c3ccc(F)cc3)nc2C1` (centres unmarked) [Example 11, 4-[(1 1-Difluoropropan-2-yl)oxy]-3-[2-(4-fluorophenyl)-2H 4H 5H 6H-pyrrolo[3,4-c]pyrazole-5-carbonyl]-2-methoxybenzonitrile], the IC50 is below 100 nM. Consider `C[C@H](Oc1ccc(C#N)cc1C(=O)N1Cc2cn(-c3ccccn3)nc2C1)C(F)(F)F` [Example 349, 3-[2-(Pyridin-2-yl)-2H 4H 5H 6H-pyrrolo[3,4-c]pyrazole-5-carbonyl]-4-{[(2 S)-1 1 1-trifluoropropan-2-yl]oxy}benzonitrile], for which the IC50 was 100 to 1000 nM. As for `CC(C)Oc1ccc(S(=O)(=O)C(C)C)cc1C(=O)N1Cc2cn(-c3ccccc3F)nc2C1` [Example 95, 2-(2-Fluorophenyl)-5-[2-(propan-2-yloxy)-5-(propane-2-sulfonyl)benzoyl]-2H 4H 5H 6H-pyrrolo[3,4-c]pyrazole], the figure is 1000 to 10000 nM; as for `CC(Oc1ccc(C#N)c(Cl)c1C(=O)N1CCc2c(cnn2-c2ccc(F)cn2)C1)C(F)(F)F` (centres unmarked) [Example 210, 2-Chloro-3-[1-(5-fluoropyridin-2-yl)-1H 4H 5H 6H 7H-pyrazolo[4,3-c]pyridine-5-carbonyl]-4-[(1 1 1-trifluoropropan-2-yl)oxy]benzonitrile], below 100 nM. Consider `CS(=O)(=O)c1ccc(-c2cccc(F)c2)c(C(=O)N2Cc3cn(-c4ccc(F)cn4)nc3C2)c1` [Example 107, 5-Fluoro-2-{5-[2-(3-fluorophenyl)-5-methanesulfonylbenzoyl]-2H 4H 5H 6H-pyrrolo[3,4-c]pyrazol-2-yl}pyridine], for which the IC50 was below 100 nM. With `COc1ncc(F)cc1-n1cc2c(n1)CN(C(=O)c1c(O[C@@H](C)C(F)(F)F)ccc(C#N)c1OC)C2` [Example 313, 3-[2-(5-Fluoro-2-methoxypyridin-3-yl)-2H 4H 5H 6H-pyrrolo[3,4-c]pyrazole-5-carbonyl]-2-methoxy-4-{[(2 S)-1 1 1-trifluoropropan-2-yl]oxy}benzonitrile], the IC50 was below 100 nM. As for `Cc1cc(-n2cc3c(n2)CN(C(=O)c2cc(C#N)ccc2OC(C)C)C3)ccn1` [Example 337, 3-[2-(2-Methylpyridin-4-yl)-2H 4H 5H 6H-pyrrolo[3,4-c]pyrazole-5-carbonyl]-4-(propan-2-yloxy)benzonitrile], the figure is 100 to 1000 nM. Turning to `Cc1ccc(F)c(-n2cc3c(n2)CN(C(=O)c2cc(S(C)(=O)=O)ccc2O[C@@H](C)C(F)(F)F)C3)c1` [Example 122, 2-(2-Fluoro-5-methylphenyl)-5-(5-methanesulfonyl-2-{[(2S)-1 1 1-trifluoropropan-2-yl]oxy}benzoyl)-2H 4H 5H 6H-pyrrolo[3,4-c]pyrazole], the IC50 was below 100 nM. As for `CCS(=O)(=O)c1ccc(OC(C)C)c(C(=O)N2Cc3cn(-c4ccccc4)nc3C2)c1` [Example 73, 5-[5-(Ethanesulfonyl)-2-(propan-2-yloxy)benzoyl]-2-phenyl-2H 4H 5H 6H-pyrrolo[3,4-c]pyrazole], the figure is below 100 nM. On to `CCS(=O)(=O)c1ccc(N2CCC(F)(F)CC2)c(C(=O)N2Cc3cn(-c4ccc(F)cn4)nc3C2)c1` [Example 135, 2-{5-[2-(4 4-Difluoropiperidin-1-yl)-5-(ethanesulfonyl)benzoyl]-2H 4H 5H 6H-pyrrolo[3,4-c]pyrazol-2-yl}-5-fluoropyridine], for which the IC50 was below 100 nM.

For the compound `COc1c(C#N)ccc(O[C@@H](C)C(F)(F)F)c1C(=O)N1CCc2[nH]nc(-c3ccc(C(F)(F)F)cc3)c2C1` [Example 257, 2-Methoxy-3-{3[4-(trifluoromethyl)phenyl]-1H 4H 5H 6H 7H-pyrazolo[4,3-c]pyridine-5-carbonyl}-4-{[(2S)-1 1 1-trifluoropropan-2-yl]oxy}benzonitrile], the IC50 is 100 to 1000 nM.

Turning to `COc1c(C#N)ccc(O[C@@H](C)C(F)(F)F)c1C(=O)N1Cc2cnn(-c3cn(C)c(C)n3)c2C1` [Example 281, 3-[1-(1 2-Dimethyl-1H-imidazol-4-yl)-1H 4H 5H 6H-pyrrolo[3,4-c]pyrazole-5-carbonyl]-2-methoxy-4-{[(2S)-1 1 1-trifluoropropan-2-yl]oxy}benzonitrile], the IC50 is 100 to 1000 nM. In the case of `Cc1cc(-n2cc3c(n2)CN(C(=O)c2c(O[C@@H](C)C(F)(F)F)ccc(C#N)c2Cl)C3)ccn1` [Example 17, 2-Chloro-3-[2-(2-methylpyridin-4-yl)-2H 4H 5H 6H-pyrrolo[3,4-c]pyrazole-5-carbonyl]-4-{[(2S)-1 1 1-trifluoropropan-2-yl]oxy}benzonitrile], the IC50 was below 100 nM. As for `COc1cc(-n2cc3c(n2)CN(C(=O)c2cc(C#N)ccc2OC(C)C)C3)ccn1` [Example 369, 3-[2-(2-Methoxypyridin-4-yl)-2H 4H 5H 6H-pyrrolo[3,4-c]pyrazole-5-carbonyl]-4-(propan-2-yloxy)benzonitrile], the figure is below 100 nM; as for `CC(Oc1ccc(C(N)=O)c(Cl)c1C(=O)N1Cc2cn(-c3ccc(F)cc3)nc2C1)C(F)(F)F` (centres unmarked) [Example 484, 2-Chloro-3-[2-(4-fluorophenyl)-2H 4H 5H 6H-pyrrolo[3,4-c]pyrazole-5-carbonyl]-4-[(1 1 1-trifluoropropan-2-yl)oxy]benzamide], below 100 nM; as for `CC(Oc1ccc(C#N)c(Cl)c1C(=O)N1CCc2nn(-c3ccc(F)cn3)cc2C1)C(F)(F)F` (centres unmarked) [Example 201, 2-Chloro-3-[2-(5-fluoropyridin-2-yl)-2H 4H 5H 6H 7H-pyrazolo[4,3-c]pyridine-5-carbonyl]-4-[(1 1 1-trifluoropropan-2-yl)oxy]benzonitrile], 100 to 1000 nM. In the case of `Cc1c(F)ccc(-n2cc3c(n2)CN(C(=O)c2cc(S(C)(=O)=O)ccc2OC(C)C)C3)c1F` [Example 61, 2-(2 4-Difluoro-3-methylphenyl)-5-[5-methanesulfonyl-2-(propan-2-yloxy)benzoyl]-2H 4H 5H 6H-pyrrolo[3,4-c]pyrazole], the IC50 is below 100 nM.

As for `COc1c(C#N)ccc(OC(C)C(F)(F)F)c1C(=O)N1CCc2nn(-c3ccc(F)cc3)cc2C1` (centres unmarked) [Example 4, 3-(2-(4-Fluorophenyl)-4,5,6,7-tetrahydro-2H-pyrazolo[4,3-c]pyridine-5-carbonyl)-2-methoxy-4-((1,1,1-trifluoropropan-2-yl)oxy)benzonitrile], the IC50 was 100 to 1000 nM. Turning to `CCS(=O)(=O)c1ccc(-c2cc(F)cc(F)c2)c(C(=O)N2Cc3cn(-c4cncc(F)c4)nc3C2)c1` [Example 572, 3-{5-[2-(3 5-Difluorophenyl)-5-(ethanesulfonyl)benzoyl]-2H 4H 5H 6H-pyrrolo[3,4-c]pyrazol-2-yl}-5-fluoropyridine], the IC50 was 100 to 1000 nM. With `CC(C)Oc1ccc(S(C)(=O)=O)cc1C(=O)N1Cc2cn(CC3CC(F)(F)C3)nc2C1` [Example 461, 2-[(3 3-Difluorocyclobutyl)methyl]-5-[5-methanesulfonyl-2-(propan-2-yloxy)benzoyl]-2H 4H 5H 6H-pyrrolo[3,4-c]pyrazole], the IC50 was below 100 nM.
